According to the NIST ThermoML archive (doi:10.1016/j.jct.2018.08.004):

Experiment: xn = mol fraction of the nth substance listed
Conditions: for surface tension liquid-gas: Maximal bubble pressure; for mass density: 100 kPa, Liquid, Vibrating tube method

CCCC[n+]1ccccc1.N#C[N-]C#N [1-butylpyridinium dicyanamide] + CC(C)O
Conditions | mass density [kg/m3] | surface tension liquid-gas [mN/m]
288.15 K, x1 = 0.1008 | 857.57 | 23.3
288.15 K, x1 = 0.2007 | 906.69 | 25.7
288.15 K, x1 = 0.3005 | 944.56 | 26.9
288.15 K, x1 = 0.3999 | 974.5 | 28.5
288.15 K, x1 = 0.5005 | 999.39 | 30.5
288.15 K, x1 = 0.5998 | 1019.53 | 33.2
288.15 K, x1 = 0.7004 | 1036.66 | 35.9
288.15 K, x1 = 0.7972 | 1050.66 | 39.9
288.15 K, x1 = 0.9032 | 1063.81 | 45.5
288.15 K, x1 = 1 | 1074.97 | 56.3
293.15 K, x1 = 0.1008 | 853.79 | 22.8
293.15 K, x1 = 0.2007 | 903.11 | 25.2
293.15 K, x1 = 0.3005 | 941.13 | 26.7
293.15 K, x1 = 0.3999 | 971.16 | 28
293.15 K, x1 = 0.5005 | 996.12 | 30.2
293.15 K, x1 = 0.5998 | 1016.32 | 32.9
293.15 K, x1 = 0.7004 | 1033.49 | 35.7
293.15 K, x1 = 0.7972 | 1047.51 | 39.6
293.15 K, x1 = 0.9032 | 1060.69 | 45.2
293.15 K, x1 = 1 | 1071.9 | 56
298.15 K, x1 = 0.1008 | 849.98 | 22.3
298.15 K, x1 = 0.2007 | 899.51 | 24.8
298.15 K, x1 = 0.3005 | 937.68 | 26.2
298.15 K, x1 = 0.3999 | 967.82 | 27.8
298.15 K, x1 = 0.5005 | 992.86 | 29.9
298.15 K, x1 = 0.5998 | 1013.12 | 32.5
298.15 K, x1 = 0.7004 | 1030.32 | 35.3
298.15 K, x1 = 0.7972 | 1044.37 | 39.3
298.15 K, x1 = 0.9032 | 1057.57 | 44.9
298.15 K, x1 = 1 | 1068.83 | 55.7
303.15 K, x1 = 0.1008 | 846.14 | 22
303.15 K, x1 = 0.2007 | 895.9 | 24.5
303.15 K, x1 = 0.3005 | 934.24 | 25.9
303.15 K, x1 = 0.3999 | 964.49 | 27.5
303.15 K, x1 = 0.5005 | 989.61 | 29.6
303.15 K, x1 = 0.5998 | 1009.92 | 32.3
303.15 K, x1 = 0.7004 | 1027.16 | 35.1
303.15 K, x1 = 0.7972 | 1041.24 | 39.1
303.15 K, x1 = 0.9032 | 1054.46 | 44.7
303.15 K, x1 = 1 | 1065.76 | 55.5
308.15 K, x1 = 0.1008 | 842.28 | 21.6
308.15 K, x1 = 0.2007 | 892.3 | 24.1
308.15 K, x1 = 0.3005 | 930.8 | 25.5
308.15 K, x1 = 0.3999 | 961.18 | 27.1
308.15 K, x1 = 0.5005 | 986.37 | 29.3
308.15 K, x1 = 0.5998 | 1006.74 | 32
308.15 K, x1 = 0.7004 | 1024.02 | 34.8
308.15 K, x1 = 0.7972 | 1038.13 | 38.8
308.15 K, x1 = 0.9032 | 1051.37 | 44.4
308.15 K, x1 = 1 | 1062.7 | 55.2
313.15 K, x1 = 0.1008 | 838.39 | 21.3
313.15 K, x1 = 0.2007 | 888.69 | 23.8
313.15 K, x1 = 0.3005 | 927.36 | 25.2
313.15 K, x1 = 0.3999 | 957.86 | 26.8
313.15 K, x1 = 0.5005 | 983.14 | 29
313.15 K, x1 = 0.5998 | 1003.56 | 31.7
313.15 K, x1 = 0.7004 | 1020.89 | 34.5
313.15 K, x1 = 0.7972 | 1035.03 | 38.5
313.15 K, x1 = 0.9032 | 1048.3 | 44.1
313.15 K, x1 = 1 | 1059.66 | 54.9
318.15 K, x1 = 0.1008 | 834.48 | 20.8
318.15 K, x1 = 0.2007 | 885.06 | 23.4
318.15 K, x1 = 0.3005 | 923.93 | 24.9
318.15 K, x1 = 0.3999 | 954.55 | 26.5
318.15 K, x1 = 0.5005 | 979.93 | 28.6
318.15 K, x1 = 0.5998 | 1000.4 | 31.4
318.15 K, x1 = 0.7004 | 1017.77 | 34.2
318.15 K, x1 = 0.7972 | 1031.94 | 38.2
318.15 K, x1 = 0.9032 | 1045.24 | 43.8
318.15 K, x1 = 1 | 1056.64 | 54.5

CCCC[n+]1ccccc1.N#C[N-]C#N [1-butylpyridinium dicyanamide] + CCCO
Conditions | mass density [kg/m3] | surface tension liquid-gas [mN/m]
288.15 K, x1 = 0.1001 | 872.25 | 26.5
288.15 K, x1 = 0.2008 | 919.12 | 27.9
288.15 K, x1 = 0.3008 | 954.79 | 29.5
288.15 K, x1 = 0.4009 | 982.76 | 31.7
288.15 K, x1 = 0.4994 | 1005.24 | 33.1
288.15 K, x1 = 0.5998 | 1023.96 | 35.7
288.15 K, x1 = 0.6976 | 1039.92 | 38.4
288.15 K, x1 = 0.7974 | 1052.61 | 41.2
288.15 K, x1 = 0.903 | 1064.59 | 45.8
288.15 K, x1 = 1 | 1074.97 | 56.3
293.15 K, x1 = 0.1001 | 868.53 | 26.1
293.15 K, x1 = 0.2008 | 915.57 | 27.6
293.15 K, x1 = 0.3008 | 951.37 | 29.1
293.15 K, x1 = 0.4009 | 979.42 | 31.3
293.15 K, x1 = 0.4994 | 1001.98 | 32.8
293.15 K, x1 = 0.5998 | 1020.75 | 35.3
293.15 K, x1 = 0.6976 | 1036.74 | 38
293.15 K, x1 = 0.7974 | 1049.46 | 41
293.15 K, x1 = 0.903 | 1061.47 | 45.6
293.15 K, x1 = 1 | 1071.9 | 56
298.15 K, x1 = 0.1001 | 864.79 | 25.6
298.15 K, x1 = 0.2008 | 912.01 | 27.1
298.15 K, x1 = 0.3008 | 947.94 | 28.8
298.15 K, x1 = 0.4009 | 976.09 | 31.1
298.15 K, x1 = 0.4994 | 998.72 | 32.5
298.15 K, x1 = 0.5998 | 1017.54 | 35
298.15 K, x1 = 0.6976 | 1033.57 | 37.7
298.15 K, x1 = 0.7974 | 1046.31 | 40.7
298.15 K, x1 = 0.903 | 1058.35 | 45.2
298.15 K, x1 = 1 | 1068.83 | 55.7
303.15 K, x1 = 0.1001 | 861.04 | 25.2
303.15 K, x1 = 0.2008 | 908.45 | 26.7
303.15 K, x1 = 0.3008 | 944.53 | 28.4
303.15 K, x1 = 0.4009 | 972.76 | 30.7
303.15 K, x1 = 0.4994 | 995.47 | 32.2
303.15 K, x1 = 0.5998 | 1014.34 | 34.7
303.15 K, x1 = 0.6976 | 1030.42 | 37.4
303.15 K, x1 = 0.7974 | 1043.18 | 40.4
303.15 K, x1 = 0.903 | 1055.25 | 45
303.15 K, x1 = 1 | 1065.76 | 55.5
308.15 K, x1 = 0.1001 | 857.28 | 24.7
308.15 K, x1 = 0.2008 | 904.9 | 26.4
308.15 K, x1 = 0.3008 | 941.11 | 28.1
308.15 K, x1 = 0.4009 | 969.44 | 30.4
308.15 K, x1 = 0.4994 | 992.23 | 31.7
308.15 K, x1 = 0.5998 | 1011.15 | 34.4
308.15 K, x1 = 0.6976 | 1027.27 | 37.1
308.15 K, x1 = 0.7974 | 1040.07 | 40.1
308.15 K, x1 = 0.903 | 1052.16 | 44.7
308.15 K, x1 = 1 | 1062.7 | 55.2
313.15 K, x1 = 0.1001 | 853.51 | 24.4
313.15 K, x1 = 0.2008 | 901.33 | 26
313.15 K, x1 = 0.3008 | 937.71 | 27.7
313.15 K, x1 = 0.4009 | 966.13 | 30
313.15 K, x1 = 0.4994 | 989 | 31.5
313.15 K, x1 = 0.5998 | 1007.98 | 34.1
313.15 K, x1 = 0.6976 | 1024.14 | 36.8
313.15 K, x1 = 0.7974 | 1036.96 | 39.8
313.15 K, x1 = 0.903 | 1049.09 | 44.4
313.15 K, x1 = 1 | 1059.66 | 54.9
318.15 K, x1 = 0.1001 | 849.73 | 24
318.15 K, x1 = 0.2008 | 897.78 | 25.6
318.15 K, x1 = 0.3008 | 934.3 | 27.3
318.15 K, x1 = 0.4009 | 962.85 | 29.6
318.15 K, x1 = 0.4994 | 985.79 | 31.2
318.15 K, x1 = 0.5998 | 1004.82 | 33.8
318.15 K, x1 = 0.6976 | 1021.02 | 36.6
318.15 K, x1 = 0.7974 | 1033.88 | 39.5
318.15 K, x1 = 0.903 | 1046.03 | 44.1
318.15 K, x1 = 1 | 1056.64 | 54.5
